Assay results as given in BindingDB's records for doi:10.1021/acschembio.5b00370 (University of Wisconsin-Madison, 2015).

Molecular target: Probable UDP-galactopyranose mutase (Klebsiella pneumoniae, UniProt Q48481)
Assay: Fluorescence Polarization Assay
Protocol: Polarization for the fluorescein-UDP conjugated probe in the presence of inhibitors was measured on a Tecan M1000 microplate reader, exciting with 470 nm light and monitoring emission at 525 nm. Each condition was tested in triplicate in the presence of 220 nM K. pneumoniae UGM and 23.3 nM of the probe.

Chain of Probable UDP-galactopyranose mutase (Q48481 whole entry): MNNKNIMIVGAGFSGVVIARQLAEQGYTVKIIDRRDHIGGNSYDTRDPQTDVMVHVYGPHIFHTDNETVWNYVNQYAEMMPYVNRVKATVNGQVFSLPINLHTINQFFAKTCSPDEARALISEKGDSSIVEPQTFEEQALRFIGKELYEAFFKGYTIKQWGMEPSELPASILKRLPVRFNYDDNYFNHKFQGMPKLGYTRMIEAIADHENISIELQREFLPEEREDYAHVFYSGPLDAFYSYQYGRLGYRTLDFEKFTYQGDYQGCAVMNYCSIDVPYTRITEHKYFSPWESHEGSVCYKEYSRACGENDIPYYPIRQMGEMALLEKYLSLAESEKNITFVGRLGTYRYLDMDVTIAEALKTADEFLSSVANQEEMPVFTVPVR

Kd [µM] | SMILES
43 | O=C(O)CC1Sc2nnc(-c3ccco3)n2N=C1c1ccccc1 (configuration not stated) [2‐[3‐(Furan‐2‐yl)‐6‐phenyl‐7H‐[1,2,4]triazolo[3,4‐b][1,3,4]thiadiazin‐7‐yl]acetate (6)]
6 | C=CCNc1nc(-c2cc(C)n(CCC(=O)O)c2C)cs1 [3‐{2,5‐Dimethyl‐3‐[2‐(prop‐2‐en‐1‐ylamino)‐1,3‐thiazol‐4‐yl]pyrrol‐1‐yl}propanoate (10)]
